Results taken from patent publication US8168651B2, “Protein kinase modulators” (Cylene Pharmaceuticals, Inc., priority 2008, dated 2012).
Like-named read-outs stand apart in the source and are kept apart here.

Key:
Jurkat = test: Cell proliferation modulatory activity, Jurkat; assay type: cell-based; details: Homo sapiens
recombinant human PIM1 = recombinant human PIM1 (Homo sapiens (Human), UniProt P11309); test: PIM-1 kinase activity in cell-free in vitro assay; assay type: biochemical; details: for inhibition at 0.5 µM: 500 nM compound, read-out: PIM-1: % inh 500 nM
Sequence of recombinant human PIM1 (P11309 whole entry): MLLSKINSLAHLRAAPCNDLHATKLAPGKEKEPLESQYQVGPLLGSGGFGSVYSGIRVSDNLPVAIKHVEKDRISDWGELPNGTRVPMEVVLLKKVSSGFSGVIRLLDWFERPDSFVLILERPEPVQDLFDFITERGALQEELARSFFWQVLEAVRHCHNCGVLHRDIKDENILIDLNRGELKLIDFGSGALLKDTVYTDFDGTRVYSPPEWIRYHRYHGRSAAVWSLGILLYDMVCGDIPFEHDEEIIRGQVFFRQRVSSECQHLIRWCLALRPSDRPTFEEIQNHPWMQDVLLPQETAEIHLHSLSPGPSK

[1] = test system: HCT-116 human colorectal carcinoma cells; test: Cell-proliferation assay using Alamar Blue dye; assay type: cell-based; details: Homo sapiens;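 further: cells exposed to compound for about 4 days, then Alamar Blue added and dye fluorescence read after about 4 h, compared with medium-only control wells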
recombinant human CK2 = recombinant human CK2 (Homo sapiens (Human), UniProt P68400); test: CK2 assay (cell-free, 33P-ATP filter plate); assay type: biochemical; details: cell-free assay; for IC50: 15 um ATP, read-out: CK2 (15 um ATP) IC50
Sequence of recombinant human CK2 (P68400 whole entry): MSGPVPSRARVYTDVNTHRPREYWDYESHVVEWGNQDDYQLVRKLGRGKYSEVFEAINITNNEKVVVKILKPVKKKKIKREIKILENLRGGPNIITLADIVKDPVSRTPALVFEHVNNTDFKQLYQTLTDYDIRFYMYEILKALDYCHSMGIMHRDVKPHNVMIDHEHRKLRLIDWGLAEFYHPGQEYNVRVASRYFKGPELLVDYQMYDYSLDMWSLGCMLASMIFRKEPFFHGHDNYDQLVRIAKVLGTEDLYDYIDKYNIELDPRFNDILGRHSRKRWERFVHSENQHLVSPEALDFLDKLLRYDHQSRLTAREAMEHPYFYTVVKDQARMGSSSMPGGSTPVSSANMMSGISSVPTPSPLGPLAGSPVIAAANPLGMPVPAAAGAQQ
Sequence of recombinant human CK2 (P67870 whole entry partner): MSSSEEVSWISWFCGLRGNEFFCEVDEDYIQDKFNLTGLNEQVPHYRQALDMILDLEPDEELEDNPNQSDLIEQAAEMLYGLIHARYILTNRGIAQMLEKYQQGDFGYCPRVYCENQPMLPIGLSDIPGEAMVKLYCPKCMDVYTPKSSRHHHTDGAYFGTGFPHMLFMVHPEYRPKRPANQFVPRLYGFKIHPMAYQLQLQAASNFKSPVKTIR

K-562 = test: Cell proliferation modulatory activity, K-562; assay type: cell-based; details: Homo sapiens, K562; K-562 cells; read-out: K-562 (uM), cell proliferation modulatory activity
PIM2 = PIM2 (Homo sapiens (Human), UniProt Q9P1W9); test: PIM2 IC50; assay type: biochemical; details: Table 45
Sequence of PIM2 (Q9P1W9 whole entry): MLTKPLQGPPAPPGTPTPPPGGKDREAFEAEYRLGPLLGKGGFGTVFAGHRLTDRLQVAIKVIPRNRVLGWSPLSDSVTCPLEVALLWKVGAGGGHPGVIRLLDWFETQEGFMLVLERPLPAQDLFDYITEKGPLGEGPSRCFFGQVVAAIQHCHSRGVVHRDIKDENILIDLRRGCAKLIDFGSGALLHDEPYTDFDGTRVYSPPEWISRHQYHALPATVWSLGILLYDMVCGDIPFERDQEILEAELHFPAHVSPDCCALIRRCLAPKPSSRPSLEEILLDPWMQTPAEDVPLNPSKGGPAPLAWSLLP

[2] = HCT-116, read-out: HCT-116 (uM), cell proliferation modulatory activity, HCT-116, second HCT-116 column (c8)
[3] = HCT-116, HCT-116, second HCT-116 column (c8), read-out: HCT-116 (uM), cell proliferation modulatory activity

IC50 (Jurkat) [µM] | inhibition at 0.5 µM (recombinant human PIM1; cell-free assay) [%] | IC50 (recombinant human CK2) [µM] | IC50 [1, 3] [µM] | other results | Structure (SMILES)
2.18 | 33.7 |  |  | IC50 [1, 2]: > 10 µM | O=C(O)c1ccc2c(c1)nc(Nc1ccccc1)c1nc(NCCCN3CCOCC3)ncc12
1.27 | -38.6 |  |  | IC50 [1, 2]: 7.3 µM | C#Cc1cccc(Nc2nc3cc(C(=O)O)ccc3c3cnc(NC4CC4)nc23)c1
1.29 | 68.2 |  |  | IC50 (recombinant human PIM1; cell-free assay): 0.661 µM; IC50 [1, 2]: 4.69 µM | C#Cc1cccc(Nc2nc3cc(C(=O)O)ccc3c3cnc(NC)nc23)c1
1.09 | 51.5 |  |  | IC50 [1, 2]: > 10 µM | CNc1ncc2c(n1)c(Nc1cccc(Cl)c1)nc1cc(C(=O)O)ccc12
9.68 | 52.4 |  |  | IC50 (recombinant human PIM1; cell-free assay): 0.535 µM; IC50 [1, 2]: > 10 µM | CNc1ncc2c(n1)c(NC1CC1)nc1cc(C(=O)O)ccc12
2.66 | 74.3 |  |  | IC50 (recombinant human PIM1; cell-free assay): 0.443 µM; IC50 [1, 2]: > 10 µM | Nc1ncc2c(n1)c(Nc1cccc(C(F)(F)F)c1)nc1cc(C(=O)O)ccc12
35.6 | 8.18 |  |  | IC50 [1, 2]: > 10 µM | O=C(O)c1ccc2c(c1)nc(NC1CC1)c1nc(NCc3ccncc3)ncc12
23.3 | 11.2 |  |  | IC50 [1, 2]: > 10 µM | O=C(O)c1ccc2c(c1)nc(NC1CC1)c1nc(NCc3ccccn3)ncc12
13.7 | 17.2 | 0.013 | > 10 |  | COCCNc1ncc2c(n1)c(NC1CC1)nc1cc(C(=O)O)ccc12
0.826 | -11.1 |  |  | IC50 [1, 2]: > 10 µM | O=C(O)c1ccc2c(c1)nc(NC1CC1)c1nc(NCCc3ccccc3)ncc12
2.14 | 73.3 |  |  | IC50 (recombinant human PIM1; cell-free assay): > 1.1 µM; IC50 [1, 2]: > 10 µM | CC(C)Nc1ncc2c(n1)c(NC1CC1)nc1cc(C(=O)O)ccc12
2.39 | 44.2 |  |  | IC50 [1, 2]: > 10 µM | O=C(O)c1ccc2c(c1)nc(NC1CC1)c1nc(Nc3cccc(C(F)(F)F)c3)ncc12
> 50 |  | 0.023 | > 10 |  | O=C(O)c1ccc2c(c1)nc(NC1CC1)c1nc(NCc3cccnc3)ncc12
2.17 | 23.2 | 0.095 | > 10 |  | O=C(O)c1ccc2c(c1)nc(NC1CC1)c1nc(Nc3cccc(Cl)c3)ncc12
2.38 | 71.7 | 0.017 | > 10 |  | O=C(O)c1ccc2c(c1)nc(NC1CC1)c1nc(Nc3cccc(F)c3F)ncc12
> 50 | -15.9 | 0.164 | > 10 |  | O=C(O)c1ccc2c(c1)nc(NC1CC1)c1nc(NCCCO)ncc12
18.1 | -8.19 | 0.058 | > 10 |  | CCOCCNc1ncc2c(n1)c(NC1CC1)nc1cc(C(=O)O)ccc12
28.7 | -32.7 | 0.228 | > 10 |  | CC(Nc1ncc2c(n1)c(NC1CC1)nc1cc(C(=O)O)ccc12)c1ccccc1 (stereo not drawn)
16.6 | -40.2 | 0.074 | > 10 |  | CC(C)OCCCNc1ncc2c(n1)c(NC1CC1)nc1cc(C(=O)O)ccc12

IC50 (Jurkat) [µM] | inhibition at 0.5 µM (recombinant human PIM1; cell-free assay) [%] | IC50 (recombinant human CK2) [µM] | IC50 [1, 3] [µM] | other results | Structure (SMILES)
21.5 | 10.5 | 0.042 | > 10 |  | O=C(O)c1ccc2c(c1)nc(NC1CC1)c1nc(NCC3CCCO3)ncc12 (stereo not drawn)
2.02 | 9.55 | 0.045 | 3.64 |  | CCOCCCNc1ncc2c(n1)c(NC1CC1)nc1cc(C(=O)O)ccc12
7.37 | -2.46 | 0.064 | > 10 | IC50 (recombinant human PIM1; cell-free assay): > 1.1 µM | CC(C)OCCNc1ncc2c(n1)c(NC1CC1)nc1cc(C(=O)O)ccc12
4.41 | 15.7 | 0.008 | > 10 |  | O=C(O)c1ccc2c(c1)nc(NC1CC1)c1nc(NCC3CC3)ncc12
44.7 | -8.31 | 0.167 | > 10 |  | CC(C)C(CO)Nc1ncc2c(n1)c(NC1CC1)nc1cc(C(=O)O)ccc12 (stereo not drawn)
0.504 | -10.8 | 0.135 | 1.33 |  | NC(=O)c1ccc2c(c1)nc(NC1CC1)c1nc(NC3CC3)ncc12
0.618 | -16.2 | > 0.75 | 1.08 |  | CNC(=O)c1ccc2c(c1)nc(NC1CC1)c1nc(NC3CC3)ncc12
1.95 | -17.1 | > 0.75 | 3.07 |  | O=C(NCc1ccccn1)c1ccc2c(c1)nc(NC1CC1)c1nc(NC3CC3)ncc12
1.64 | -16.1 | > 0.75 | 3.87 |  | COCCNC(=O)c1ccc2c(c1)nc(NC1CC1)c1nc(NC3CC3)ncc12
0.989 | -5.17 | > 0.75 | 3.16 |  | O=C(Nc1ccccc1)c1ccc2c(c1)nc(NC1CC1)c1nc(NC3CC3)ncc12
1.43 | 2.65 | > 0.75 | > 10 |  | O=C(NCCN1CCOCC1)c1ccc2c(c1)nc(NC1CC1)c1nc(NC3CC3)ncc12
2.36 | 3.79 | > 0.75 | > 10 |  | NCCNC(=O)c1ccc2c(c1)nc(NC1CC1)c1nc(NC3CC3)ncc12
0.583 | 1.62 | > 0.75 | 1.12 |  | CN(C)C(=O)c1ccc2c(c1)nc(NC1CC1)c1nc(NC3CC3)ncc12
7.44 | 87.3 |  | > 10 | IC50 (recombinant human PIM1; cell-free assay): 0.711 µM | O=C(O)c1ccc2c(c1)nc(Nc1cccc(OC(F)(F)F)c1)c1ccncc12
10.4 | 75.8 |  | > 10 | IC50 (recombinant human PIM1; cell-free assay): 0.698 µM | COc1ccccc1Nc1nc2cc(C(=O)O)ccc2c2cnccc12
 | 22.9 |  |  | inhibition at 0.5 µM (recombinant human CK2; 500 nM compound, read-out: CK2: % inh 500 nM): 45.4%; IC50 (K-562): > 10 µM; IC50 ([1]; HCT-116, second of two HCT-116 columns (c8), read-out: HCT-116 (uM), cell proliferation modulatory activity): > 10 µM | Fc1cc(Cl)cc(Nc2nc3cc(-c4nnn[nH]4)ccc3c3ccsc23)c1
 |  |  |  | IC50 (PIM2): < 1 µM; IC50 (recombinant human PIM1; Table 45): < 0.5 µM | c1cc(-c2nc[nH]n2)c2nc(NCc3ccncc3)c3ccncc3c2c1
 |  |  |  | IC50 (PIM2): < 0.5 µM; IC50 (recombinant human PIM1; Table 45): < 0.5 µM | c1ccc(CNc2nc3c(-c4nc[nH]n4)cccc3c3cnccc23)nc1
 |  |  |  | IC50 (PIM2): > 1.1 µM; IC50 (recombinant human PIM1; Table 45): < 0.5 µM | CN1CCC(CNc2nc3c(-c4nnc[nH]4)cccc3c3cnccc23)CC1

IC50 (Jurkat) [µM] | inhibition at 0.5 µM (recombinant human PIM1; cell-free assay) [%] | IC50 (recombinant human CK2) [µM] | IC50 [1, 3] [µM] | other results | Structure (SMILES)
 |  |  |  | IC50 (PIM2): > 1.1 µM; IC50 (recombinant human PIM1; Table 45): < 0.5 µM | c1cncc(CNc2nc3c(-c4nc[nH]n4)cccc3c3cnccc23)c1
 |  |  |  | IC50 (PIM2): > 1.1 µM; IC50 (recombinant human PIM1; Table 45): < 1 µM | CN1CCN(c2nc3c(-c4nc[nH]n4)cccc3c3cnccc23)CC1
 |  |  |  | IC50 (PIM2): > 1.1 µM; IC50 (recombinant human PIM1; Table 45): < 1 µM | NC(=O)c1cc(F)cc2c1nc(Nc1cccc(Cl)c1)c1ccncc12
 |  |  |  | IC50 (PIM2): > 1.1 µM; IC50 (recombinant human PIM1; Table 45): < 5 µM | c1cc(-c2nc[nH]n2)c2nc(NCCN3CCOCC3)c3ccncc3c2c1
 |  |  |  | IC50 (PIM2): > 1.1 µM; IC50 (recombinant human PIM1; Table 45): < 5 µM | CN(C)CCNc1nc2c(-c3nc[nH]n3)cccc2c2cnccc12
 |  |  |  | IC50 (PIM2): > 1.1 µM; IC50 (recombinant human PIM1; Table 45): > 1.1 µM | CCN1CCCC1CNc1nc2c(-c3nc[nH]n3)cccc2c2cnccc12 (stereo not drawn)
 |  |  |  | IC50 (PIM2): > 1.1 µM; IC50 (recombinant human PIM1; Table 45): > 1.1 µM | O=C(O)c1cc(F)cc2c1nc(Nc1cccc(Cl)c1)c1ccncc12
 |  |  |  | IC50 (PIM2): > 1.1 µM; IC50 (recombinant human PIM1; Table 45): > 1.1 µM | O=C(O)c1cc(F)cc2c1nc(Nc1cccc(Cl)c1)c1cnccc12
4.67 | -0.924 |  | > 10 |  | COC(=O)c1ccc2c(c1)nc(NC1CC1)c1nc(SCc3ccccc3Cl)ncc12 [drawing 1611]
29.3 | 7.49 |  | > 10 |  | O=C(O)c1ccc2c(c1)nc(NC1CC1)c1nc(SCc3ccccc3Cl)ncc12 [drawing 1614]
3.45 | 27.1 |  |  | IC50 [1, 2]: > 10 µM | O=C(O)c1ccc2c(c1)nc(NC1CC1)c1nc(NC3CC3)ncc12 [drawing 1616]
8.82 | 34.5 |  |  | IC50 [1, 2]: > 10 µM | O=C(O)c1ccc2c(c1)nc(NC1CC1)c1nc(NCc3ccccc3)ncc12 [drawing 1617]
4.6 | 46 |  |  | IC50 [1, 2]: > 10 µM | O=C(O)c1ccc2c(c1)nc(NC1CC1)c1nc(Nc3ccccc3)ncc12 [drawing 1618]
3.67 | 26 |  | > 10 |  | O=C(O)c1ccc2c(c1)nc(N1CCOCC1)c1nc(NC3CC3)ncc12 [drawing 1627]
> 50 | 17.1 |  | > 10 |  | COC(=O)c1ccc2c(c1)nc(NC1CC1)c1nc(SC)ncc12 [drawing 1641]
34 | -37.5 |  | > 10 |  | CN(C)CCNc1nc2cc(C(=O)O)ccc2c2cnc(NC3CC3)nc12 [drawing 1642]
9.37 | 13.2 |  |  | IC50 [1, 2]: > 10 µM | CCCNc1ncc2c(n1)c(NC1CC1)nc1cc(C(=O)O)ccc12 [drawing 1645]
 |  |  |  | IC50 (PIM2): < 1 µM; IC50 (recombinant human PIM1; Table 45): < 1 µM | Fc1cc(-c2nnc[nH]2)c2nc(Nc3cccc(Cl)c3)c3ccncc3c2c1 [drawing 2259]
 |  |  |  | IC50 (PIM2): > 1.1 µM; IC50 (recombinant human PIM1; Table 45): > 1.1 µM | Fc1cc(-c2nnc[nH]2)c2nc(Nc3cccc(Cl)c3)c3ccncc3c2c1 [drawing 2269]
